Measurements: patent US20120329784A1, “COMPOUNDS AND METHODS” (priority 2010, published 2012)
Counter-ions that a name gives are not always drawn. Like-named read-outs stand apart in the source and are kept apart here.

Molecular target: T1, Full length human TNNI3K (hTNNI3K) (Homo sapiens, UniProt Q59H18)
T1 construct: His-MBP-TEV-Full length human TNNI3K (hTNNI3K); His (N); MBP (N); TEV cleavage site (N); made in house; host or cells: baculovirus expression system (printed 'Baculokinase system')
T1 sequence (Q59H18 1-835): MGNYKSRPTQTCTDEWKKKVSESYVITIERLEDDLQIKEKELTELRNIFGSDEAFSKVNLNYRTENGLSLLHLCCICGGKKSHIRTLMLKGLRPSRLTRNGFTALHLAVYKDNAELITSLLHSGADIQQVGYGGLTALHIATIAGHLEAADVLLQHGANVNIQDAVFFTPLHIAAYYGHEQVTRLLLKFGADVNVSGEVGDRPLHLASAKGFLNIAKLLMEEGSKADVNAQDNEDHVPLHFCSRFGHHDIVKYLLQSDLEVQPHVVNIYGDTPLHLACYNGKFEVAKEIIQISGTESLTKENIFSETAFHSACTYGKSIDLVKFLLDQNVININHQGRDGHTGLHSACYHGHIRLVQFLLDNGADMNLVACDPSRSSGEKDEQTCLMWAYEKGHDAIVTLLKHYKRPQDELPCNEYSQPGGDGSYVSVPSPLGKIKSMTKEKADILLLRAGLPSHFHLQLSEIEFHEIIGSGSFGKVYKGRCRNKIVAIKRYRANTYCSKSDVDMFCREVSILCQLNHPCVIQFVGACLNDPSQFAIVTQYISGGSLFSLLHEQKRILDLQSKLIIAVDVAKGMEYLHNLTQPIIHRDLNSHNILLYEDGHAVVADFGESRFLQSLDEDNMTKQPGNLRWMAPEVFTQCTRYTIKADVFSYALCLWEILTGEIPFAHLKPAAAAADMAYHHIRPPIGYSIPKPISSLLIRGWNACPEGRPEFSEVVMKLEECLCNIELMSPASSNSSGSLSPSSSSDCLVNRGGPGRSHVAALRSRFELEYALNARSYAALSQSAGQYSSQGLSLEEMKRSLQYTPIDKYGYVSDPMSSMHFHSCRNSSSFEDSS
Test: Fluorescent polarization assay of compound inhibition on hTNNI3K ATP binding (Biological Assay Method I)
Description: Materials: His-MBP-TEV-Full length human TNNI3K (hTNNI3K) was expressed in Baculokinase system and purified from amylase affinity column followed by Superdex200. […] The preparation of this fluorescent ligand is disclosed in U.S. Provisional Patent Application No. 61/237,815 filed Aug. 28, 2009, the disclosure of which is incorporated by reference herein. The other buffer components, including MgCl2 (Catalog Number M1028), Bis-Tris (Catalog Number B7535), DTT (Catalog Number D9779) and Chaps (Catalog Number C3023) were purchased from Sigma-Aldrich.
A fluorescent polarization assay was used to determine does response of compound inhibition on hTNNI3K ATP binding. […]
Fifty (50) nL of inhibitors in DMSO (or DMSO controls) were stamped into a 384-well low volume Greiner black plate, followed by addition of 5 μL of Solution 1 to column 18 and 5 μL Solution 2 to columns 1-17 and 19-24 of the plate. […] After that, the fluorescent polarization was measured on Analyst (ex/em: 485/530 nm, Dichroic: 505). […]

SMILES	IC50 (mean of a minimum of 2 experiments, displacement of fluorescent ligand from hTNNI3K ATP binding pocket, 60 min at rt, read-out: pXC50 (the source's name) (converted)) [µM]	IC50 [µM]
CNS(=O)(=O)c1cccc(Nc2cc(Nc3nc(C)co3)ncn2)c1 [Example 284, N-methyl-3-({6-[(4-methyl-1,3-oxazol-2-yl)amino]-4-pyrimidinyl}amino)benzenesulfonamide]	~0.1	–
CNS(=O)(=O)c1cccc(Nc2cc(Nc3ccccc3)ncn2)c1 [Example 55, N-methyl-3-{[6-(phenylamino)-4-pyrimidinyl]amino}benzenesulfonamide trifluoroacetate]	–	~0.1
